Tests used:
[1] = biological target: dialkylglycine decarboxylase (DGD); WT DGD (Burkholderia cepacia, UniProt P16932, W138F); assay: biochemical
[2] = biological target: dialkylglycine decarboxylase (DGD); WT DGD (Burkholderia cepacia, UniProt P16932, M141R/W138F); assay: biochemical

SMILES	Ki [1]	Ki [2]
N[C@@H](C(=O)O)c1ccccc1 [D-phenylglycine]	50 mM	
N[C@H](CCC(=O)O)C(=O)O [D-glutamate]		89 mM

From publication PMC2994807 (Biochemistry, 2010)
